Measurements taken from US10322037B2, “Absorbent article” (UNICHARM CORPORATION, priority 2012, dated 2019).

Text: As used herein, the term “solubility” in regard to water solubility includes cases where the sample completely dissolves in deionized water to form a homogeneous mixture, and cases where the sample is completely emulsified. As used herein, “completely” means that no mass of the sample remains in the deionized water.

## CCCCCCCCCCCCOC(=O)CCCCCCCCCCC [2-18]
  Water solubility: <0.05 g

## CCCCCCCCCCCCCC(=O)OCCCCCCCCCCCC [2-19]
  Water solubility: <0.05 g
